The source of these data is US11220503B2, “Phthalazine derivatives, preparation method, pharmaceutical composition and usage thereof” (Shanghai SIMR Biotech Co., Ltd., priority 2015, dated 2022).

Like-named read-outs stand apart in the source and are kept apart here.

One series concerns the target T1, α5β3γ2 receptor (Homo sapiens, UniProt P18507+P31644).
T1 construct: expressed in transfected cells; host or cells: HEK-293 (stably transfected)
Nature of the series: Cell level screening: whole cell patch clamp, inverse agonist efficacy. Type of series: cell-based. To be noted: for inverse agonism efficacy of the compound/α5IA inverse agonism efficacy: ratio to α5IA, compound 100 nM. For orientation: Patch clamp records ionic current or voltage across a cell membrane.

Series [1] is described as follows: Tissue distribution of the compounds (brain/plasma). Type of series: in vivo. To be noted: brain and plasma, po; rat, 10 mg/kg p.o. in 50% PEG400, one hour; read-out: Brain/Plasma ratio. The protocol: The distribution ratio of blood brain tissue was calculated by comparing the concentration of compound in rat plasma and brain tissue. The experimental animals were divided into two groups, the plasma group and the brain group, each with three. Rats were administed compounds in 50% PEG400 p.o. at a dose of 10 mg compound to be tested/kg. One hour later, plasma and brain samples were taken. Concentrations of compounds in brain and plasma were detected using LC-MS/MS-A (Triple Quad 5500) assay and analyzed using Phoenix WinNonlin.

The mark [2] stands for this setting: HEK293, compound 100 nM, GABA 0.05-0.1 μM, HEK293 α5β3γ2, clamped at −60 mV, (Ipost-Ipre)*100/Ipre, read-out: inverse agonism efficacy(%).

T1 sequence (P31644 32-462): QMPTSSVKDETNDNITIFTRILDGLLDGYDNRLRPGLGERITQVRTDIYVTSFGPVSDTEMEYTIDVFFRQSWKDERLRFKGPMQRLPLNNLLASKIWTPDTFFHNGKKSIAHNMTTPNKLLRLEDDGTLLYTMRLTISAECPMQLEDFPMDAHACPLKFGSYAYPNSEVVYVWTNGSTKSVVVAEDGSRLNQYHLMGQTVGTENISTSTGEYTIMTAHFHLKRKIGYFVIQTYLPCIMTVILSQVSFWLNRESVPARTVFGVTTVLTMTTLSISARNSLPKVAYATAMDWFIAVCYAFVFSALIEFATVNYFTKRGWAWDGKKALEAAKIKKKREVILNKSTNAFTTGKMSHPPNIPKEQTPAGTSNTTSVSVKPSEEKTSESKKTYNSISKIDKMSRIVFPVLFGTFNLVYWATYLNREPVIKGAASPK
T1 sequence (P28472 26-473 isoform P28472-2 partner limits assumed): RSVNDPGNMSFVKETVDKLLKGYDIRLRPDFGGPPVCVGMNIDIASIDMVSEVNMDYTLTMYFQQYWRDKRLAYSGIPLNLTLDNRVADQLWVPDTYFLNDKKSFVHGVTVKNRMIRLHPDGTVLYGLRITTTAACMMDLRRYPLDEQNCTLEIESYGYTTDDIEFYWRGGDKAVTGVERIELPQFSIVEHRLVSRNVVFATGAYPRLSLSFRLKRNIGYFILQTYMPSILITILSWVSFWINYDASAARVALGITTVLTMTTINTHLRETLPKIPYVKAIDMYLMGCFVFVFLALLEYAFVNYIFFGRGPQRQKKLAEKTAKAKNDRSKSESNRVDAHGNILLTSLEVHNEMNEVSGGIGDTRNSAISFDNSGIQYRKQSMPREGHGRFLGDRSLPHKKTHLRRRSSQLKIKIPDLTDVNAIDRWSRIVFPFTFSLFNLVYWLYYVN
T1 sequence (P18507 40-475): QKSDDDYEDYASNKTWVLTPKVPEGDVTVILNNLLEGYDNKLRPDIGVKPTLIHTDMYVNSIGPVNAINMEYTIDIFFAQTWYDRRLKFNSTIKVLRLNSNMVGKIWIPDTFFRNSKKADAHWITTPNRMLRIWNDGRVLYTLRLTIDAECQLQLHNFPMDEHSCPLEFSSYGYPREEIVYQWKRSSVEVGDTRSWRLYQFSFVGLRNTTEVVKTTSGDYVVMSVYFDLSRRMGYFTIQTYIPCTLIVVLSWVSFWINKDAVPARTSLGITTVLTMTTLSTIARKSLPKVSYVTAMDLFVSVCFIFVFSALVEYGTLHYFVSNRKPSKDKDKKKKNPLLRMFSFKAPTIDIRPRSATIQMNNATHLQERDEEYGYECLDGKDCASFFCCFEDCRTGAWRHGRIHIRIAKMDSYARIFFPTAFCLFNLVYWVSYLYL

For `CCNC(=O)c1ccc(COc2nn3c(-c4cc(C)on4)nnc3c3ccccc23)nc1` [Compound 07, N-ethyl-6-(((3-(5-methylisoxazol-3-yl)-[1,2,4]triazolo[3,4-a]phthalazin-6-yl)oxy)methyl)nicotinamide], the inhibition at 0.1 µM was 24.8% at α5β3γ2 receptor (setting [2]) and 45.8% on α5β3γ2 receptor (dose-efficacy, Con. 100 nM, single replicates, read-out: Inverse agonism-Efficacy). For the same molecule, the inhibition at 0.01 µM on α5β3γ2 receptor (dose-efficacy, Con. 10 nM, single replicates, read-out: Inverse agonism-Efficacy) stood at 25.5%. Also, the inhibition at 0.05 µM at α5β3γ2 receptor (dose-efficacy, Con. 50 nM, single replicates, read-out: Inverse agonism-Efficacy) stood at 40%. For the same molecule, the inhibition at 1 µM at α5β3γ2 receptor (dose-efficacy, Con. 1000 nM, single replicates, read-out: Inverse agonism-Efficacy) stood at 39.1%. In addition, the “inverse agonism efficacy of the compound/α5IA inverse agonism efficacy” value at α5β3γ2 receptor was determined as 1.1. In addition, in series [1], the Kp at 1 h is below 0.01.

For `COCCNC(=O)c1ccc(COc2nn3c(-c4cc(C)on4)nnc3c3ccccc23)nc1` [Compound 08, N-(2-methoxyethyl)-6-(((3-(5-methylisoxazol-3-yl)-[1,2,4]triazolo[3,4-a]phthalazin-6-yl)oxy)methyl)nicotinamide], the inhibition at 0.1 µM on α5β3γ2 receptor (setting [2]) was determined as 34%. Besides, the “inverse agonism efficacy of the compound/α5IA inverse agonism efficacy” value on α5β3γ2 receptor is 1.508. Moreover, the Kp at 1 h in series [1] was below 0.01.
